# Results taken from patent US20070297980A1, “Geldanamycin and Derivatives Inhibit Cancer Invasion and Identify Novel Targets” (priority 2004, published 2007).
# “Also recorded” adds a separate entry of the source.
# Assays:
# [1] = test system: HGF/SF-induced uPA-plasmin activity in MDCK cells; test: HGF/SF-Met-uPA-plasmin cell-based assay, MDCK cells; design: species or system canine; conditions: for concentration level at which HGF/SF-induced uPA activity is inhibited: words
# [2] = test system: HGF/SF-induced MDCK cell scattering; test: Scatter assay, MDCK cells; assay type: cell-based, canine
# Description: (§1) Scatter Assay. In parallel with assessing uPA activity, 96-well plates of MDCK cells were used to detect cell scattering. Cell preparation was same as above (plasmin assay) described above. At the same time as uPA activity was measured, the cells being assayed for scatter were fixed, stained (Diff-Quik Set, Dade Behring AG) and photographed.
# [3] = test system: cell proliferation (DBTRG, U373, SNB19 cells); test: Proliferation assay (MTS); assay type: cell-based, human; conditions: cell line not stated
# Description: Proliferation Assay. In parallel with uPA-plasmin detection assay, cell proliferation in 96-well plates was detected with MTS. […] The plates were then incubated at 37° C., in a 5% CO2 atmosphere for 4 h. The absorbance was read on an automated spectrophotometric plate reader at 490 nm.
# MDCK cells = test: Long-term culture of MDCK cells in macbecin II; assay type: cell-based, canine
# Description: All compounds were first diluted in DMSO at 0.01M, separated into small stock aliquots (5 μl) and kept at −80° C. until use. When used, stocks were thawed and serially diluted with DMEM/10% FBS. For long term culture with MA, conditioned medium with the compound at 1, 2, or 3×10^−6 M was changed at least twice a week.
# Met expression = test: Western blot, Met expression; assay type: cell-based; design: effect on Met expression: dose or concentration left out as unconfirmed; conditions: for Met abundance upon acute challenge: 24 hrs, MDCKG1-G3 cells chronically exposed to MA; for effect on Met expression: MDCK and DBTRG cells
# Description: (§2) Western Blot and Expression of Met and other Proteins. Cells were seeded in 60×15 mm dishes at 10^5 cells per dish. HGF/SF (100 ng/ml) was added to each dish 24 hr later. Immediately thereafter, serially diluted GA or MA was added to the relevant dishes at the concentrations indicated, and incubated for the indicated length of time before lysis. For Met and MAPK phosphorylation detection, 10^5 cells were seeded in 60×15 mm dishes and serum-starved for 24 hrs. After HGF/SF (100 ng/ml) stimulation, cells were lysed at 10 and 30 min. Control cells were not given HGF/SF. After cell lysis, protein concentration was determined by DC protein assay (Bio-Rad), and equal quantities of protein were loaded and separated by SDS-PAGE and transferred in a Western blot to PVDF membranes (Invitrogen). After blocking with 5% dry milk, membranes were blotted with specific antibodies.
# After cells grew to 80% confluence, GA or MA, at various concentrations was added to the dishes. After 24 hours, cells were washed twice with PBS and lysed in TNESV buffer supplemented with Complete™ proteinase inhibitors (Roche Molecular Biochemicals). Protein concentration was determined by DC protein assay. Equal quantities of protein were used for Western blotting for Met and HSP90α. For pull-down assays, 20 μl of control or GA beads adjusted for equal concentrations were added to […] of extract and rotated at 4° C. overnight. Beads were recovered by low speed centrifugation and washed 3× with TNESV. Sixty μl 2× sample buffer was added to beads and boiled for 10 min. The samples were subjected to SDS-PAGE followed by Western blot analysis.
# HSP90α expression = test: Western blot, HSP90α expression; assay type: cell-based; conditions: MDCK and DBTRG cells
# Description: as §2
# After cells grew to 80% confluence, GA or MA, at various concentrations was added to the dishes. After 24 hours, cells were washed twice with PBS and lysed in TNESV buffer supplemented with Complete™ proteinase inhibitors (Roche Molecular Biochemicals). Protein concentration was determined by DC protein assay. Equal quantities of protein were used for Western blotting for Met and HSP90α. […]
# HSP90α = test: GA-affinity bead pull-down (solid-phase binding assay); conditions: MDCK and DBTRG lysates
# [4] = Egorin M J et al., 2002; cited from earlier work
# [5] = test system: HGF/SF-induced uPA activity in U373 cells; test: HGF/SF-Met-uPA-plasmin cell-based assay, U373 cells; design: species or system human
# Description: (§4) HGF/SF-Met-uPA-Plasmin Cell-Based Assay (Webb et al., supra). Cells were seeded in 96-well plates at 1500 cells/well (with the exception of SK-LMS-1 cells, which were seeded at 5000 cells/well) in order to detect color intensity, either with MTS (Promega) for cell growth determination or via Chromozyme PL (Boehringer Mannheim) for uPA-plasmin activity measurement. Cells were grown overnight in DMEM/10% FBS as described previously. Drugs were dissolved in DMSO and serially diluted from stock concentrations into DMEM/10% FBS medium and added to the appropriate wells. Immediately after drug or reagent addition, HGF/SF (60 ng/ml) was added to all wells (with the exception of wells used as controls to calculate basal growth and uPA-plasmin activity levels). Twenty-four hours after drug and HGF/SF addition, plates were processed for the determination of uPA-plasmin activity as follows: Wells were washed twice with DMEM (without phenol red; Life Technologies, Inc.), and 200 μl of reaction buffer [50% (v/v) 0.05 units/ml plasminogen in DMEM (without phenol red), 40% (v/v) 50 mM Tris buffer (pH 8.2), and 10% (v/v) 3 mM Chromozyme PL (Boehringer Mannheim) in 100 mM glycine solution] were added to each well. […]
# [6] = preliminary reports; Neckers et al; Sausville et al; cited from earlier work
# [7] = test system: uPA activity in DBTRG cells; test: HGF/SF induction of uPA activity, DBTRG cells; assay type: cell-based, human; conditions: peak uPA induction after HGF/SF to basal
# Description: as §4
# [8] = test system: uPA activity in SNB19 cells; test: HGF/SF induction of uPA activity, SNB19 cells; assay type: cell-based, human; conditions: peak uPA induction after HGF/SF to basal
# Description: as §4
# [9] = test system: uPA activity in U118 cells; test: HGF/SF induction of uPA activity, U118 cells; assay type: cell-based, human; conditions: peak uPA induction after HGF/SF to basal
# Description: as §4
# [10] = test system: uPA activity in U87 cells; test: HGF/SF induction of uPA activity, U87 cells; assay type: cell-based, human; conditions: peak uPA induction after HGF/SF to basal
# Description: (§5) Cells were seeded in 96-well plates at 1500 cells/well (with the exception of SK-LMS-1 cells, which were seeded at 5000 cells/well) in order to detect color intensity, either with MTS (Promega) for cell growth determination or via Chromozyme PL (Boehringer Mannheim) for uPA-plasmin activity measurement. Cells were grown overnight in DMEM/10% FBS as described previously. Drugs were dissolved in DMSO and serially diluted from stock concentrations into DMEM/10% FBS medium and added to the appropriate wells. Immediately after drug or reagent addition, HGF/SF (60 ng/ml) was added to all wells (with the exception of wells used as controls to calculate basal growth and uPA-plasmin activity levels). Twenty-four hours after drug and HGF/SF addition, plates were processed for the determination of uPA-plasmin activity as follows: Wells were washed twice with DMEM (without phenol red; Life Technologies, Inc.), and 200 μl of reaction buffer [50% (v/v) 0.05 units/ml plasminogen in DMEM (without phenol red), 40% (v/v) 50 mM Tris buffer (pH 8.2), and 10% (v/v) 3 mM Chromozyme PL (Boehringer Mannheim) in 100 mM glycine solution] were added to each well. […]
# [11] = test system: uPA activity in SW1874 cells; test: HGF/SF induction of uPA activity, SW1874 cells; assay type: cell-based, human; conditions: peak uPA induction after HGF/SF to basal
# Description: as §5
# [12] = test system: uPA activity in SK-LMS-1 cells; test: HGF/SF induction of uPA activity, SK-LMS-1 cells; assay type: cell-based, human; conditions: peak uPA induction after HGF/SF to basal
# Description: as §5
# [13] = test system: uPA activity in DU145 cells; test: HGF/SF induction of uPA activity, DU145 cells; assay type: cell-based, human; conditions: peak uPA induction after HGF/SF to basal
# Description: as §5
# [14] = test system: uPA activity in PC-3 cells; test: HGF/SF induction of uPA activity, PC-3 cells; assay type: cell-based, human; conditions: peak uPA induction after HGF/SF to basal
# Description: as §4
# [15] = test system: HGF/SF-induced cell scattering in MDCKG3 cells; test: Scatter assay, MDCKG3 cells (maintained in MA); assay type: cell-based, canine; conditions: MDCKG3 cells maintained in 3×10^−6 M MA; GA tested 10^−7 to 10^−15 M
# Description: as §1
# [16] = test system: HGF/SF-induced Matrigel invasion by DBTRG cells; test: In vitro Matrigel invasion assay, DBTRG; assay type: cell-based, human; conditions: even at pM-fM concentrations
# Description: (§3) In Vitro Cell Invasion Assay. The in vitro invasion assay was performed as previously described by Jeffers et al., 1996, using a 24-well invasion chamber coated with GFR-Matrigel® (Becton Dickinson). Cells were suspended in DMEM/0.1% BSA and were plated in the invasion (upper) chamber (5−25×10^3 cells/well) (DBTRG 5,000, SNB19 and U373 25,000 cells/well). The lower chamber was filled with DMEM/0.1% BSA with or without the addition of HGF/SF (100 ng/ml). To evaluate GA inhibition, GA was serially diluted into both the upper and lower chambers at final concentrations 1 μM, to 1 fM as indicated and immediately after HGF/SF addition. After 24 h, cells remaining in the upper chamber were removed by scraping. The cells that invaded through the Matrigel® and attached to the lower surface of the insert were stained using Diff-Quik (Dade Behring Inc.) and counted under a light microscope.
# [17] = test system: HGF/SF-induced Matrigel invasion by SNB19 cells; test: In vitro Matrigel invasion assay, SNB19; assay type: cell-based, human; conditions: even at pM-fM concentrations
# Description: as §3
# [18] = test system: HGF/SF-induced Matrigel invasion by U373 cells; test: In vitro Matrigel invasion assay, U373; assay type: cell-based, human; conditions: even at pM-fM concentrations
# Description: as §3
molecule,measurement,setting,value
"COC1CC(C)C(OC)c2cc(O)cc(c2O)NC(=O)/C(C)=C\C=C/C(C)C(OC(N)=O)/C(C)=C\C(C)C1OC (centres unmarked) [Compound 21, Macbecin II, reference compound]",activity in HGF/SF-induced uPA-plasmin cell-based assays (words),[1]; MDCK cells,inactive
same,activity in HGF/SF-induced uPA-plasmin cell-based assays (words),"[1]; MDCK cells, listed as macbecin II",poor activity
same,concentration level at which HGF/SF-induced uPA activity is inhibited,[1],only at nM or higher concentrations
same,effect on HGF/SF-induced scattering of MDCK cells,[2]; 3×10^−6 M MA,effectively blocked
same,concentration level at which proliferation is inhibited,[3],nM levels
same,highest non-toxic concentration,MDCK cells; MDCK cells maintained for several months,3 µM
same,MA concentration up to which MDCK cells continued to proliferate,MDCK cells; long-term culture,≤ 3 µM
same,Met abundance upon acute challenge,Met expression; 10^−5 M MA,less of a decrease
same,effect on Met expression,Met expression; at MA,downregulation
same,effect on HSP90α expression,HSP90α expression,up-regulation
same,total HSP90α recovered with GA-affinity beads,HSP90α; cells treated with 10^−5 M MA,negligible levels
same,HSP90α available to the GA affinity beads,HSP90α; cells treated with 10^−6 M MA,reduced
"CO[C@H]1/C=C\C=C(/C)C(=O)NC2=CC(=O)C(N3CCC3)=C(C[C@@H](C)C[C@H](OC)[C@H](O)[C@@H](C)/C=C(\C)[C@@H]1OC(N)=O)C2=O [Compound 14, 17-(1-Azetidinyl)-17-demethoxygeldanamycin]",activity in HGF/SF-induced uPA-plasmin cell-based assays (words),[1]; MDCK cells,active
"CO[C@H]1[C@@H](OC)C[C@H](C)[C@@H](OC)C2=CC(=O)C=C(NC(=O)/C(C)=C/C=C\[C@H](C)[C@@H](OC(N)=O)/C(C)=C/[C@@H]1C)C2=O [Compound 2, Macbecin I, reference compound]",activity in HGF/SF-induced uPA-plasmin cell-based assays (words),[1]; MDCK cells,inactive
same,activity in HGF/SF-induced uPA-plasmin cell-based assays (words),"[1]; MDCK cells, listed as macbecin I",poor activity
"COC1/C=C\C=C(/C)C(=O)NC2=CC(=O)C(NCCN(C)C)=C(C[C@@H](C)C[C@H](OC)[C@H](O)[C@@H](C)/C=C(\C)[C@@H]1OC(N)=O)C2=O (some centres unmarked) [Compound 5, 17-(2-Dimethylaminoethyl)amino-17-demethoxygeldanamycin]","quantity not named in the sentence (""was essentially 100% when given i.p."")",[4],~100%
"C=CCNC1=C2C[C@@H](C)C[C@H](OC)[C@H](O)[C@@H](C)/C=C(\C)[C@H](OC(N)=O)[C@@H](OC)/C=C\C=C(/C)C(=O)NC(=CC1=O)C2=O [Compound 4, 17-Allylamino-17-demethoxygeldanamycin]",lowest concentration at which inhibitory effects on uPA activity observed,[1]; MDCK cells,10^−17 M
same,activity in HGF/SF-induced uPA-plasmin cell-based assays (words),[1]; MDCK cells,active
same,lowest concentration at which inhibitory effects on uPA activity observed,[5]; U373 cells,10^−17 M
same,concentration range inhibiting HGF/SF-induced MDCK cell scattering,[2]; FIG. 10,pM to fM range
same,hepatic toxicity in clinical investigations,[6],dose-limiting
"COc1c(O)cc2c(O)c1C[C@@H](C)C[C@H](OC)[C@H](O)[C@@H](C)/C=C(\C)[C@H](OC(N)=O)[C@@H](OC)/C=C\C=C(/C)C(=O)N2 [Compound 20, 17,21-Dihydrogeldanamycin]",activity in HGF/SF-induced uPA-plasmin cell-based assays (words),[1]; MDCK cells,active
"HGF/SF: hepatocyte growth factor/scatter factor, ligand of the Met receptor tyrosine kinase",uPA activity induction (fold),"[1]; MDCK, peak uPA induction after HGF/SF (0-60 ng/ml, 24 h) to basal",4.27 fold
same,uPA activity induction (fold),"[5]; U373, peak uPA induction after HGF/SF to basal",1.56 fold
same,uPA activity induction (fold),[7],2.28 fold
same,uPA activity induction (fold),[8],1.95 fold
same,uPA activity induction (fold),[9],1.12 fold
same,uPA activity induction (fold),[10],1.04 fold
same,uPA activity induction (fold),[11],0.97 fold
same,uPA activity induction (fold),[12],2.01 fold
same,uPA activity induction (fold),[13],1.06 fold
same,uPA activity induction (fold),[14],1.00 fold
"COC1=C2C[C@@H](C)C[C@H](OC)[C@H](O)[C@@H](C)/C=C(\C)[C@H](OC(N)=O)[C@@H](OC)/C=C\C=C(/C)C(=O)NC(=CC1=O)C2=O [Compound 1, (+)-Geldanamycin]",activity in HGF/SF-induced uPA-plasmin cell-based assays (words),[1]; MDCK cells,active
same,GA concentration at which scattering was again fully observed,[15],10^−15 M
same,effect on HGF/SF-induced Matrigel invasion,[16],abolished
same,effect on HGF/SF-induced Matrigel invasion,[17],abolished
same,effect on HGF/SF-induced Matrigel invasion,[18],abolished
same,Met abundance upon acute challenge,Met expression; 10^−6 M GA,dramatic decreases
same,effect on Met expression,Met expression; GA at nM levels,downregulates
"C[C@@H]1C[C@H]2O[C@@H]2/C=C\C=C\C(=O)Cc2c(Cl)c(O)cc(O)c2C(=O)O1 [Compound 3, Radicicol, reference compound]",activity in HGF/SF-induced uPA-plasmin cell-based assays (words),[1]; MDCK cells,poor activity; also recorded: inactive
same,concentration level at which HGF/SF-induced uPA activity is inhibited,[1],only at nanomolar levels
same,concentration level at which HGF/SF-induced uPA activity is inhibited,[1]; listed as RA,only at nM or higher concentrations
"CO[C@H]1/C=C\C=C(/C)C(=O)NC2=CC(=O)C(N3CCC3)=C(C[C@@H](C)C[C@H](OC)[C@H](O)[C@@H](C)/C=C(\C)[C@@H]1O)C2=O [Compound 19, 17-(1-Azetidinyl)-7-decarbamyl-17-demethoxygeldanamycin]",activity in HGF/SF-induced uPA-plasmin cell-based assays (words),[1]; MDCK cells,completely inactive
"CO[C@H]1/C=C\C=C(/C)C(=O)NC2=CC(=O)C(N3CCC3)=C(C[C@@H](C)C[C@H](OC)[C@H](OC(C)=O)[C@@H](C)/C=C(\C)[C@@H]1OC(N)=O)C2=O [Compound 18, 11-O-Acetyl-17-(1-azetidinyl)-17-demethoxygeldanamycin]",activity in HGF/SF-induced uPA-plasmin cell-based assays (words),[1]; MDCK cells,inactive
